target: T1, hP2X4 (human purinergic P2X receptor subtype 4) (Homo sapiens, UniProt Q99571); details: P2X4 IC50 (nM), HEK293 cells stably expressing hP2X4; agonist BZ-ATP 2.5 μM; FLIPR calcium
T1 sequence (Q99571 1-404 isoform Q99571-2): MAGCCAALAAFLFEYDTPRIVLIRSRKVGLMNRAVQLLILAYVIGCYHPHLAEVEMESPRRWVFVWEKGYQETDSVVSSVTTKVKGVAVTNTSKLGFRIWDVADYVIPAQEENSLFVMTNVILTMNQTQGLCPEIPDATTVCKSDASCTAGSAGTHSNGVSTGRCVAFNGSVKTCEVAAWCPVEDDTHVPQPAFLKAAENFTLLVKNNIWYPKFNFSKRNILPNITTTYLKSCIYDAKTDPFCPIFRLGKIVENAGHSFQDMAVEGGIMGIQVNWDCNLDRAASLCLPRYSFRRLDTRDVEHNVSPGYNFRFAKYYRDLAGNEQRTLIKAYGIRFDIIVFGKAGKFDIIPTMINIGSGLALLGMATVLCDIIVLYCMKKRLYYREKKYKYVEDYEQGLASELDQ
Experimental: Cells at 400,000 cells/mL were seeded into a 384-well plate (10,000 cells/well) 18-24 h prior to the FLIPR experiment and then incubated overnight in a cell incubator. […] Each well was added with 20 μL of 0.5×Calcium 6 fluorescent dye (Molecular Devices, R8190) and then the cells were subjected to dye-loading incubation at 37° C. for 1.5 h. Each well was added with 10 μL of respective test compound (dissolved in DMSO at a concentration of 10 mM and serially diluted with buffer) or vehicle and the mixture was equilibrated for 30 min at room temperature.

| SMILES | IC50 |
| --- | --- |
| NS(=O)(=O)c1cc(NC(=O)Cc2ccccc2Cl)cc2c(OCF)nccc12 [Compound 61, 2-(2-chlorophenyl)-N-(1-(fluoromethoxy)-5-sulfamoylisoquinolin-7-yl)acetamide] | 50 to 200 nM |
| NS(=O)(=O)c1cc(NC(=O)Cc2ccccc2Cl)cc2c(=O)[nH]ccc12 [Compound 43, 2-(2-chlorophenyl)-N-(1-oxo-5-sulfamoyl-1,2-dihydroisoquinolin-7-yl)acetamide] | 200 to 5000 nM |
| COCCOc1ccc2c(S(N)(=O)=O)cc(NC(=O)Cc3ccccc3Cl)cc2n1 [Compound 74, 2-(2-chlorophenyl)-N-(2-(2-methoxyethoxy)-5-sulfamoylquinolin-7-yl)acetamide] | 50 to 200 nM |
| NS(=O)(=O)c1cc(NC(=O)Cc2ccccc2Cl)cc2cncnc12 [Compound 40, 2-(2-chlorophenyl)-N-(8-sulfamoylquinazolin-6-yl)acetamide] | 50 to 200 nM |
| COC(=O)N1CCCc2c1cc(NC(=O)Cc1ccccc1Cl)cc2S(N)(=O)=O [Compound 46, methyl 7-(2-(2-chlorophenyl)acetamido)-5-sulfamoyl-3,4-dihydroquinoline-1(2H)-carboxylate] | 200 to 5000 nM |
| NS(=O)(=O)c1cc(NC(=O)Cc2ccccc2Cl)cc2c(OCC3CC3)nccc12 [Compound 16] | 10 to 50 nM |
| CCN1CCc2c(cc(NC(=O)Cc3ccccc3Cl)cc2S(N)(=O)=O)C1 [Compound 109, 2-(2-chlorophenyl)-N-(2-ethyl-5-sulfamoyl-1,2,3,4-tetrahydroisoquinolin-7-yl)acetamide] | 200 to 5000 nM |
| NS(=O)(=O)c1cc(NC(=O)Cc2ccccc2Cl)cc2cnc(C(F)(F)F)cc12 [Compound 19, 2-(2-chlorophenyl)-N-(−5-sulfamoyl-3-(trifluoromethyl)isoquinolin-7-yl)acetamide] | < 10 nM |
| COc1ccc2c(S(N)(=O)=O)cc(NC(=O)Cc3ccccc3Cl)cc2n1 [Compound 58, 2-(2-chlorophenyl)-N-(2-methoxy-5-sulfamoylquinolin-7-yl)acetamide] | 50 to 200 nM |
| NS(=O)(=O)c1cc(NC(=O)Cc2ccccc2Cl)cc2nc(-n3cccn3)ccc12 [Compound 49, N-(2-(1H-pyrazol-1-yl)-5-sulfamoylquinolin-7-yl)-2-(2-chlorophenyl)acetamide] | 50 to 200 nM |
| NS(=O)(=O)c1cc(NC(=O)Cc2ccccc2Cl)cc2c1CCN(Cc1ccccc1)C2 [Compound 110, N-(2-benzyl-5-sulfamoyl-1,2,3,4-tetrahydroisoquinolin-7-yl)-2-(2-chlorophenyl)acetamide] | 200 to 5000 nM |
| NS(=O)(=O)c1cc(NC(=O)Cc2ccccc2Cl)cc2c(OC3CCCC3)nccc12 [Compound 13] | 10 to 50 nM |
| NS(=O)(=O)c1cc(NC(=O)Cc2ccccc2Cl)cc2cc(Cl)ncc12 [Compound 59, N-(3-chloro-8-sulfamoylisoquinolin-6-yl)-2-(2-chlorophenyl)acetamide] | 50 to 200 nM |
| NS(=O)(=O)c1cc(NC(=O)Cc2ccccc2Cl)cc2c1CCN(C(Cl)Cl)C2 [Compound 115, 2-(2-chlorophenyl)-N-(2-(dichloromethyl)-sulfamoyl-1,2,3,4-tetrahydroisoquinolin-7-yl)acetamide] | 200 to 5000 nM |
| NS(=O)(=O)c1cc(NC(=O)Cc2ccccc2Cl)cc2c1CCN(CC1CC1)C2 [Compound 111] | 200 to 5000 nM |
| CC(=O)N1CC(Oc2nccc3c(S(N)(=O)=O)cc(NC(=O)Cc4ccccc4Cl)cc23)C1 [Compound 33, N-(1-((1-acetylazetidin-3-yl)oxo)-5-sulfamoylisoquinolin-7-yl)-2-(2-chlorophenyl)acetamide] | 10 to 50 nM |
| NS(=O)(=O)c1cc(NC(=O)Cc2ccccc2Cl)cc2c1CCN(C(=O)Oc1ccccc1)C2 [Compound 105, phenyl 7-(2-(2-chlorophenyl)acetamido)-5-sulfamoyl-3,4-dihydroisoquinoline-2(1H)-carboxylate] | 50 to 200 nM |
| NS(=O)(=O)c1cc(NC(=O)Cc2ccccc2Cl)cc2c1CCN(C(=O)OC1CC1)C2 [Compound 101, cyclopropyl-7-(2-(2-chlorophenyl)acetamido)-5-sulfamoyl-3,4-dihydroisoquinoline-2(1H)-carboxylate] | 10 to 50 nM |
| NS(=O)(=O)c1cc(NC(=O)Cc2ccccc2Cl)cc2c1CCN(c1ccc(F)cc1)C2 [Compound 120, 2-(2-chlorophenyl)-N-(2-(4-fluorophenyl)-5-sulfamoyl-1,2,3,4-tetrahydroisoquinolin-7-yl)acetamide] | 50 to 200 nM |
| COc1nccc2c(S(N)(=O)=O)cc(NC(=O)Cc3c(Cl)cccc3Cl)cc12 [Compound 91, 2-(2,6-dichlorophenyl)-N-(1-methoxy-5-sulfamoylisoquinolin-7-yl)acetamide] | 200 to 5000 nM |
| NS(=O)(=O)c1cc(NC(=O)Cc2ccccc2Cl)cc2cncc(F)c12 [Compound 18, 2-(2-chlorophenyl)-N-(4-fluoro-5-sulfamoylisoquinolin-7-yl)acetamide] | 50 to 200 nM |

| SMILES | IC50 |
| --- | --- |
| CCOc1nccc2c(S(N)(=O)=O)cc(NC(=O)Cc3ccccc3Cl)cc12 [Compound 8, 2-(2-chlorophenyl)-N-(1-ethoxy-5-sulfamoylisoquinolin-7-yl)acetamide] | 10 to 50 nM |
| NS(=O)(=O)c1cc(NC(=O)Cc2ccccc2Cl)cc2c(Cl)nccc12 [Compound 2, N-(1-chloro-5-sulfamoylisoquinolin-7-yl)-2-(2-chlorophenyl)acetamide] | 10 to 50 nM |
| NS(=O)(=O)c1cc(NC(=O)Cc2ccccc2Cl)cc2ccnnc12 [Compound 41, 2-(2-chlorophenyl)-N-(8-sulfamoylcinnolin-6-yl)acetamide] | 50 to 200 nM |
| N#Cc1ccc2cc(NC(=O)Cc3ccccc3Cl)cc(S(N)(=O)=O)c2c1 [Compound 42, 2-(2-chlorophenyl)-N-(6-cyano-4-sulfamoylnaphthalen-2-yl)acetamide] | 10 to 50 nM |
| NS(=O)(=O)c1cc(NC(=O)Cc2ccc(F)cc2Cl)cc2c1CCN(c1ccc(F)cn1)C2 [Compound 122] | 200 to 5000 nM |
| CC#Cc1ccc2c(S(N)(=O)=O)cc(NC(=O)Cc3ccccc3Cl)cc2n1 [Compound 87, 2-(2-chlorophenyl)-N-(2-(prop-1-yn-1-yl)-5-sulfamoylquinolin-7-yl)acetamide] | 10 to 50 nM |
| Cc1ccc(Oc2nccc3c(S(N)(=O)=O)cc(NC(=O)Cc4ccccc4Cl)cc23)cc1 [Compound 34, 2-(2-chlorophenyl)-N-(5-sulfamoyl-1-(p-tolyloxy)isoquinolin-7-yl)acetamide] | 10 to 50 nM |
| CN(C)c1ccc2c(S(N)(=O)=O)cc(NC(=O)Cc3ccccc3Cl)cc2n1 [Compound 88, 2-(2-chlorophenyl)-N-(2-(dimethylamino)-5-sulfamoylquinolin-7-yl)acetamide] | 50 to 200 nM |
| Cc1nccc2c(S(N)(=O)=O)cc(NC(=O)Cc3ccccc3Cl)cc12 [Compound 55] | 50 to 200 nM |
| NS(=O)(=O)c1cc(NC(=O)Cc2ccccc2Cl)cc2c1CCN(C(=O)C(F)(F)F)C2 [Compound 114, 2-(2-chlorophenyl)-N-(5-sulfamoyl-2-(2,2,2-trifluoroacetyl)-1,2,3,4-tetrahydroisoquinolin-7-yl) acetamide] | 10 to 50 nM |
| NS(=O)(=O)c1cc(NC(=O)Cc2ccccc2Cl)cc2nc(Cl)ccc12 [Compound 57] | 50 to 200 nM |
| NS(=O)(=O)c1cc(NC(=O)Cc2ccccc2Cl)cc2c(OC3CCC3)nccc12 [Compound 11, 2-(2-chlorophenyl)-N-(1-cyclobutoxy-5-sulfamoylisoquinolin-7-yl)acetamide] | 10 to 50 nM |
| CN1CCN(c2ccc3c(S(N)(=O)=O)cc(NC(=O)Cc4ccccc4Cl)cc3n2)CC1 [Compound 69, 2-(2-chlorophenyl)-N-(2-(4-methylpiperazin-1-yl)-5-sulfamoylquinolin-7-yl)acetamide] | 200 to 5000 nM |
| NS(=O)(=O)c1cc(NC(=O)Cc2ccccc2Cl)cc2c(Oc3ccccc3)nccc12 [Compound 30, 2-(2-chlorophenyl)-N-(1-phenoxy-5-sulfamoylisoquinolin-7-yl)acetamide] | 10 to 50 nM |
| NS(=O)(=O)c1cc(NC(=O)Cc2ccccc2Cl)cc2c(C(F)F)nccc12 [Compound 25, 2-(2-chlorophenyl)-N-(1-(difluoromethyl)-5-sulfamoylisoquinolin-7-yl)acetamide] | < 10 nM |
| NS(=O)(=O)c1cc(NC(=O)Cc2ccccc2Cl)cc2c(OC(F)(F)F)nccc12 [Compound 60, 2-(2-chlorophenyl)-N-(5-sulfamoyl-1-(trifluoromethoxy)isoquinolin-7-yl)acetamide] | 50 to 200 nM |
| NS(=O)(=O)c1cc(NC(=O)Cc2ccccc2Cl)cc2cnc(OCCO)cc12 [Compound 76, 2-(2-chlorophenyl)-N-(3-(2-hydroxyethoxy)-5-sulfamoylisoquinolin-7-yl)acetamide] | 50 to 200 nM |
| COCCOc1cc2c(S(N)(=O)=O)cc(NC(=O)Cc3ccccc3Cl)cc2cn1 [Compound 84, 2-(2-chlorophenyl)-N-(3-(2-methoxyethoxy)-5-sulfamoylisoquinolin-7-yl)acetamide] | 50 to 200 nM |
| NS(=O)(=O)c1cc(NC(=O)Cc2ccccc2Cl)cc2nc(N3CCCC3)ccc12 [Compound 89, (2-chlorophenyl)-N-(2-(pyrrolidin-1-yl)-5-sulfamoylquinolin-7-yl)acetamide] | 200 to 5000 nM |
| CC(C)N1CCc2c(cc(NC(=O)Cc3ccccc3Cl)cc2S(N)(=O)=O)C1 [Compound 113, 2-(2-chlorophenyl)-N-(2-isopropyl-5-sulfamoyl-1,2,3,4-tetrahydroisoquinolin-7-yl)acetamide] | 50 to 200 nM |
| COc1ccc(Oc2ccc3c(S(N)(=O)=O)cc(NC(=O)Cc4ccccc4Cl)cc3n2)cc1 [Compound 72, 2-(2-chlorophenyl)-N-(2-(4-methoxyphenoxy)-5-sulfamoylquinolin-7-yl)acetamide] | 50 to 200 nM |

— patent US12692235B2, “Fused ring compound and application thereof” (WUHAN LL SCIENCE AND TECHNOLOGY DEVELOPMENT CO., LTD., priority 2019, dated 2026)
